Results: patent US4376771A, “6-(p-Acylaminophenyl)-4,5-dihydropyridaz-3-ones and therapeutic agents containing said compounds” (BASF Aktiengesellschaft, priority 1977, dated 1983)
Values after ≈ are worked out from the molar mass of the structure shown. Read-outs that look alike come from different tables or passages of the source.

Legend:
human thrombocytes = assay: Inhibition of the collagen-induced aggregation of human thrombocytes in vitro; type: cell-based; settings: for EC50: 10 min, read-out: Inhibition of thrombocyte aggregation EC 50%; for Inhibition of thrombocyte aggregation R.E. (relative effectiveness): acetylsalicylic acid = 1.00
Procedure: 1. Inhibition of the collagen-induced aggregation of human thrombocytes in vitro.
Thrombocyte-rich plasma is obtained by centrifuging venous citrate blood (300 g, 10 minutes duration at 4° C.). The photometric measurement of the thrombocyte aggregation is carried out with addition of MgCl2 (final concentration 10 millimoles/l) and of collagen Stago (final concentration 0.02 mg/ml) in a Born Mk 3 aggregometer. The maximum extinction change/sec is used as a measure of the aggregation.
The aggregation-inhibiting activity of the substances is tested after an incubation time of 10 minutes.
(§1) The effective doses or effective concentrations were calculated from the linear relationships between the logarithm of the dose or concentration and the logarithm of the effect, by means of regression analysis.
(§2) Acetylsalicyclic acid was used as the reference substance for the inhibition of thrombocyte aggregation and dihydralazine was used as the reference substance for the anti-hypertensive effect.

narcotized rats = assay: Anti-hypertensive effect on narcotized rats; type: in vivo, male Sprague-Dawley rats; settings: for ED20: Rattus norvegicus, ip, dose at which the blood pressure falls by 20%, read-out: Lowering of blood pressure ED 20%; for ED20 / Lowering of blood pressure R.E. (relative effectiveness): rats, urethane narcosis, intraperitoneal; for anti-hypertensive effect (in words): Table 1; for Lowering of blood pressure R.E. (relative effectiveness): dihydralazine = 1.00; for anti-hypertensive power relative to dihydralazine: times more powerful than dihydralazine
Procedure: 3. Anti-hypertensive effect on narcotized rats.
To test the anti-hypertensive effect, the substances are administered intraperitoneally to groups of 3-5 male Sprague-Dawley rats weighing 240-280 g, under urethane narcosis ([…] given intraperitoneally). The measurement of the blood pressure in the carotid artery is carried out by means of Statham transducers. The ED 20% is determined as the dose which lowers the mean carotid blood pressure by 20%.
as §1, §2

[1] = Toxicity (LD 50), mice, intraperitoneal administration; type: in vivo; settings: mouse, in vivo, ip; mice, intraperitoneal administration
Source text: (§3) ^(3) Mice. Intraperitoneal administration.

rat thrombocytes = assay: Inhibition of the collagen-induced aggregation of rat thrombocytes ex vivo; type: in vivo, male Sprague-Dawley rats; settings: for ED33: Rattus norvegicus, read-out: Inhibition of thrombocyte aggregation ED 33%; for Inhibition of thrombocyte aggregation R.E. (relative effectiveness): acetylsalicylic acid 1.0
Procedure: 2. Inhibition of the collagen-induced aggregation of rat thrombocytes ex vivo.
The substances are administered orally to groups of 10-15 male Sprague-Dawley rats weighing 200-250 g. 2-4 hours after administration, blood is taken under ether narcosis and thrombocyte-rich plasma is obtained by centrifuging. The aggregation after addition of collagen is measured as indicated above.
as §1, §2

Mice = assay: Toxicity (LD 50), mice, intraperitoneal administration; type: in vivo; settings: compared with acetylsalicylic acid and dihydralazine; Table 2
Source text: as §3

[2] = test system: spontaneously hypertonic rats; assay: Anti-hypertensive effect on spontaneously hypertonic rats; type: in vivo, male spontaneously hypertonic Okamoto rats; settings: for ED20: Rattus norvegicus, 2 hours, dose which lowers the blood pressure by 20% compared to the control group, read-out: Anti-hypertensive effect ED 20%; for ED20 / Anti-hypertensive effect R.E. (relative effectiveness): spontaneously hypertonic rats, oral; for Anti-hypertensive effect R.E. (relative effectiveness): dihydralazine 1.0
Procedure: 4. Anti-hypertensive effect on spontaneously hypertonic rats.
The substances are administered orally to groups of 4-8 male spontaneously hypertonic Okamoto rats weighing 270-340 g.
Before, and 2 hours after, the administration, the systolic blood pressure is measured non-surgically by means of piezo-electric crystal sensors.
The ED 20% is determined as the dose which lowers the systolic pressure by 20%, taking into account the values found with untreated control animals.
as §1, §2

[3] = human thrombocytes, in vitro, collagen 0.02 mg/ml, 10 minutes incubation, concentration which inhibits collagen-induced aggregation by 50%

Compound | EC50 (human thrombocytes; [3]) [µg/mL] | Inhibition of thrombocyte aggregation R.E. (relative effectiveness) (human thrombocytes; human thrombocytes, in vitro) | ED20 (narcotized rats) [mg/kg] | anti-hypertensive effect (in words) (narcotized rats) | Lowering of blood pressure R.E. (relative effectiveness) (narcotized rats) | further results
O=C1CCC(c2ccc(NC(=O)CCl)cc2)=NN1 [Example 1, 6-(p-chloroacetylaminophenyl)-4,5-dihydropyridaz-3-one] | 0.25 (≈ 0.941 µM) | 1,980 | 0.37 | about as active as dihydralazine | 0.92 | –
CC(=O)Oc1ccccc1C(=O)O [Acetylsalicylic acid, acetylsalicylic acid, reference compound] | – | – | – | – | – | LD50 [1]: 167 mg/kg; ED33 (rat thrombocytes; po): 134 mg/kg; Inhibition of thrombocyte aggregation R.E. (relative effectiveness) (rat thrombocytes; rats, oral, ex vivo): 1.0; EC50 (human thrombocytes; Homo sapiens): 494 µg/mL (≈ 2740 µM)
CC(Cl)C(=O)Nc1ccc(C2=NNC(=O)CC2C)cc1 (stereo not shown) [Example 5, 6-[p-(2-chloropropionylamino)-phenyl]-5-methyl-4,5-dihydropyridaz-3-one] | 0.031 (≈ 0.106 µM) | 15,900 | 0.0079 | – | 43.04 | acute toxicity (in words) (Mice): somewhat less than that of acetylsalicyclic acid and dihydralazine; LD50 [1]: 231 mg/kg; ED20 [2]: 1.16 mg/kg; lowering of blood pressure ([2]; spontaneously hypertensive rats, oral dose of 1.2 mg/kg): about 20%; Anti-hypertensive effect R.E. (relative effectiveness) [2]: 5.9; ED33 (rat thrombocytes; rats, oral, ex vivo, Example 5 given 2 hours, acetylsalicylic acid 4 hours before measuring, dose which inhibits collagen-induced aggregation by 33%): 0.82 mg/kg; inhibition of thrombocyte aggregation after oral administration (in words) (rat thrombocytes; oral, Table 2): very strong inhibition of thrombocyte aggregation; Inhibition of thrombocyte aggregation R.E. (relative effectiveness) (rat thrombocytes; rats, oral, ex vivo): 163; anti-hypertensive power relative to dihydralazine (narcotized rats): 43 times
CC1CC(=O)NN=C1c1ccc(NC(=O)CCCCl)cc1 (stereo not shown) [Example 8, 6-[p-(4-chlorobutyrylamino)-phenyl]-5-methyl-4,5-dihydropyridaz-3-one] | 1.7 (≈ 5.52 µM) | 291 | 0.32 | about as active as dihydralazine | 1.06 | –
CC1CC(=O)NN=C1c1ccc(NC(=O)C(C)(C)CCl)cc1 (stereo not shown) [Example 11] | 0.47 (≈ 1.46 µM) | 1,050 | 0.61 | – | 0.56 | –
NNc1nnc(NN)c2ccccc12 [Dihydralazine, dihydralazine, reference compound] | 149 (≈ 783 µM) | 3.32 | 0.34 | – | 1.00 | LD50 [1]: 106 mg/kg; ED20 [2]: 6.85 mg/kg; Anti-hypertensive effect R.E. (relative effectiveness) [2]: 1.0

Second part, led by results:

EC50 (human thrombocytes; [3]) [µg/mL] | Compound | Inhibition of thrombocyte aggregation R.E. (relative effectiveness) (human thrombocytes; human thrombocytes, in vitro) | ED20 (narcotized rats) [mg/kg] | anti-hypertensive effect (in words) (narcotized rats) | Lowering of blood pressure R.E. (relative effectiveness) (narcotized rats) | further results
0.89 (≈ 2.53 µM) | CC1CC(=O)NN=C1c1ccc(NC(=O)C(C)(C)Br)cc1 (stereo not shown) [Example 17] | 555 | 2.93 | slight | 0.12 | –
0.3 (≈ 1.02 µM) | CC1CC(=O)NN=C1c1ccc(NC(=O)CCCl)cc1 (stereo not shown) [Example 7, 6-[p-(3-chloropropionylamino)-phenyl]-5-methyl-4,5-dihydropyridaz-3-one] | 1,650 | 0.045 | – | 7.56 | anti-hypertensive power relative to dihydralazine (narcotized rats): 7.6 times
0.44 (≈ 1.2 µM) | CC1CC(=O)NN=C1c1ccc(NC(=O)C(C)(C)CBr)cc1 (stereo not shown) [Example 12] | 1,120 | 0.34 | about as active as dihydralazine | 1.00 | –
0.35 (≈ 1.25 µM) | O=C1CCC(c2ccc(NC(=O)CCCl)cc2)=NN1 [Example 6, 6-[p-(3-chloropropionylamino)-phenyl]-4,5-dihydropyridaz-3-one] | 1,410 | 10 | slight | 0.03 | inhibition of thrombocyte aggregation (in words) (human thrombocytes; human thrombocytes, collagen-induced, Table 1): highly specific thrombocyte aggregation-inhibiting effect
0.27 (≈ 0.965 µM) | CC(Cl)C(=O)Nc1ccc(C2=NNC(=O)CC2)cc1 (stereo not shown) [Example 4, 6-[p-(2-chloropropionylamino)-phenyl]-4,5-dihydropyridaz-3-one] | 1,830 | 0.53 | about as active as dihydralazine | 0.64 | –
0.58 (≈ 1.71 µM) | CC(Br)C(=O)Nc1ccc(C2=NNC(=O)CC2C)cc1 (stereo not shown) [Example 16] | 852 | 0.4 | about as active as dihydralazine | 0.85 | –
0.11 (≈ 0.393 µM) | CC1CC(=O)NN=C1c1ccc(NC(=O)CCl)cc1 (stereo not shown) [Example 3, 6-(p-chloroacetylaminophenyl)-5-methyl-4,-dihydropyridaz-3-one] | 4,490 | 0.15 | about as active as dihydralazine | 2.27 | –
0.27 (≈ 0.767 µM) | CCC(Br)C(=O)Nc1ccc(C2=NNC(=O)CC2C)cc1 (stereo not shown) [Example 9] | 1,830 | 1.49 | slight | 0.23 | –
